# Assay results: US11000033B2, “Ketone or oxime compound, and herbicide” (NISSAN CHEMICAL CORPORATION, priority 2014, dated 2021)
# Key:
# Format in all cases: in vivo
# corn = experiment: Test Example 4: effect on crop by soil treatment (symbol c); settings: application herbicide amount 320 g/ha
# How it was run: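 Seeds were sown in spots on sterilized diluvial soil in a plastic box and covered with about 1.5 cm of soil. Plants were then grown in a greenhouse at 25° C. to 30° C.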
# rapeseed = experiment: Test Example 4: effect on crop by soil treatment (symbol g); settings: application herbicide amount 320 g/ha
# How it was run: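 The test used sterilized diluvial soil. Seed was set down in spots and overlaid with about 1.5 cm of soil before growth in a greenhouse kept at 25° C. to 30° C.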
# rice plant = experiment: Test Example 5: effect on crop by foliage application, plastic box (symbol b); settings: 320 g/ha, 3 weeks after application
# How it was run: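 Diluvial soil, sterilized and boxed (21 × 13 × 7 cm), received spot-sown seed covered by about 1.5 cm soil; plants were then greenhouse-grown at 25–30° C.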
# Lolium multiflorum Lam. [1] = experiment: Test Example 4: herbicidal effect by soil treatment (symbol K); settings: application herbicide amount 320 g/ha
# How it was run: (§1)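 Seeds were sown in sterilized diluvial soil, covered with about 1.5 cm of soil, and the soil surface was sprayed with a water-diluted emulsion of the compound at a predetermined rate. Plants grew in a greenhouse at 25° C. to 30° C.; effects were scored visually 3 weeks after application.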
# Alopecurus myosuroides = experiment: Test Example 4: herbicidal effect by soil treatment (symbol J); settings: application herbicide amount 320 g/ha
# How it was run: as §1
# Setaria viridis = experiment: Test Example 5: herbicidal effect by foliage application, plastic box (symbol G); settings: 320 g/ha, 3 weeks after application
# How it was run: (§2)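 Seeds were sown in sterilized diluvial soil, covered with about 1.5 cm of soil and grown 14 days in a greenhouse at 25° C. to 30° C. An emulsifiable formulation diluted in water to a set rate was sprayed over foliage, and injury was scored 3 weeks later.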
# [2] = test system: Echinochloa crus-galli var. crus-galli; experiment: Test Example 4: herbicidal effect by soil treatment (symbol H); settings: application herbicide amount 320 g/ha
# How it was run: as §1
# [3] = test system: Echinochloa oryzacola Vasing.; experiment: Test Example 1: herbicidal activity, application before weed generation in submerged conditions (symbol A); settings: application herbicide amount 320 g/ha
# How it was run: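 Compound emulsion was diluted to a set herbicide amount and applied to the water surface on the sowing day, into submerged (4 cm) alluvial-soil pots sown with mixed weed seeds and transplanted 2.5-leaf rice. Pots were held in a 25–30 °C greenhouse, and weeds were scored 0–5 by herbicidal ratio after 3 weeks.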
# Lolium multiflorum Lam. [4] = experiment: Test Example 5: herbicidal effect by foliage application, plastic box (symbol K); settings: 320 g/ha, 3 weeks after application
# How it was run: as §2
# Galium spurium = experiment: Test Example 5: herbicidal effect by foliage application, plastic box (symbol Q); settings: 320 g/ha, 3 weeks after application
# How it was run: as §2
# Stellaria media = experiment: Test Example 5: herbicidal effect by foliage application, plastic box (symbol P); settings: 320 g/ha, 3 weeks after application
# How it was run: as §2
# Abutilon theophrasti = experiment: Test Example 5: herbicidal effect by foliage application, plastic box (symbol M); settings: 320 g/ha, 3 weeks after application
# How it was run: as §2
# Amaranthus retroflexus = experiment: Test Example 5: herbicidal effect by foliage application, plastic box (symbol N); settings: 320 g/ha, 3 weeks after application
# How it was run: as §2
# Avena fatua = experiment: Test Example 4: herbicidal effect by soil treatment (symbol I); settings: application herbicide amount 320 g/ha
# How it was run: as §1
# [5] = test system: Echinochloa oryzacola Vasing.; experiment: Test Example 2: herbicidal activity, application during weed generation in submerged conditions (symbol A); settings: Table 23; application herbicide amount 320 g/ha; grade 0-5 by criteria of Test Example 1
# How it was run: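 Flooded-soil post-emergence test: emulsion of compound, water-diluted to target rate, applied to paddy water surface at 1–2 leaf stage of mixed-sown weeds (alluvial soil, 4 cm water, 25–30° C. greenhouse); visual rating 3 weeks after application.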
SMILES,c (corn) effect on crop grade (corn),g (rapeseed) effect on crop grade (rapeseed),"b: directly sowed rice plant, effect on crop grade (rice plant)",K (Lolium multiflorum Lam.) herbicidal effect grade (Lolium multiflorum Lam. [1]),J (Alopecurus myosuroides) herbicidal effect grade (Alopecurus myosuroides),"G: Setaria viridis, herbicidal effect grade (Setaria viridis)",H (Echinochloa crus-galli var. crus-galli) herbicidal effect grade [2],"Herbicidal effect grade, A: Echinochloa oryzacola Vasing. [3]","K: Lolium multiflorum Lam., herbicidal effect grade (Lolium multiflorum Lam. [4])","Q: Galium spurium, herbicidal effect grade (Galium spurium)","P: Stellaria media, herbicidal effect grade (Stellaria media)","M: Abutilon theophrasti, herbicidal effect grade (Abutilon theophrasti)","N: Amaranthus retroflexus, herbicidal effect grade (Amaranthus retroflexus)",I (Avena fatua) herbicidal effect grade (Avena fatua),"Herbicidal effect grade, A: Echinochloa oryzacola Vasing. [5]"
CC(CC1CC(O)=C(c2c(C)cc(C)cc2C)C1=O)=NOCC1CC1 (stereo not drawn) [1-024],1 (Herbicidal ratio of 5% or higher and lower than 20%),3 (Herbicidal ratio of 40% or higher and lower than 70%),5 (Herbicidal ratio of 90% or more (almost completely withered)),5 (Herbicidal ratio of 90% or more (almost completely withered)),5 (Herbicidal ratio of 90% or more (almost completely withered)),5 (Herbicidal ratio of 90% or more (almost completely withered)),5 (Herbicidal ratio of 90% or more (almost completely withered)),5 (Herbicidal ratio of 90% or more (almost completely withered)),5 (Herbicidal ratio of 90% or more (almost completely withered)),3 (Herbicidal ratio of 40% or higher and lower than 70%),3 (Herbicidal ratio of 40% or higher and lower than 70%),1 (Herbicidal ratio of 5% or higher and lower than 20%),0 (Herbicidal ratio of 5% or lower (almost no effect)),4 (Herbicidal ratio of 70% or higher and lower than 90%),5 (Herbicidal ratio of 90% or more (almost completely withered))
CC(CC1CC(O)=C(c2c(C)cc(C)cc2C)C1=O)=NOCC(C)O (stereo not drawn) [1-027],4 (Herbicidal ratio of 70% or higher and lower than 90%),4 (Herbicidal ratio of 70% or higher and lower than 90%),5 (Herbicidal ratio of 90% or more (almost completely withered)),5 (Herbicidal ratio of 90% or more (almost completely withered)),5 (Herbicidal ratio of 90% or more (almost completely withered)),5 (Herbicidal ratio of 90% or more (almost completely withered)),5 (Herbicidal ratio of 90% or more (almost completely withered)),4 (Herbicidal ratio of 70% or higher and lower than 90%),5 (Herbicidal ratio of 90% or more (almost completely withered)),3 (Herbicidal ratio of 40% or higher and lower than 70%),1 (Herbicidal ratio of 5% or higher and lower than 20%),2 (Herbicidal ratio of 20% or higher and lower than 40%),0 (Herbicidal ratio of 5% or lower (almost no effect)),4 (Herbicidal ratio of 70% or higher and lower than 90%),4 (Herbicidal ratio of 70% or higher and lower than 90%)
CC(CC1CC(O)=C(c2c(C)cc(C)cc2C)C1=O)=NOCC(F)(F)F (stereo not drawn) [1-028],0 (Herbicidal ratio of 5% or lower (almost no effect)),4 (Herbicidal ratio of 70% or higher and lower than 90%),5 (Herbicidal ratio of 90% or more (almost completely withered)),5 (Herbicidal ratio of 90% or more (almost completely withered)),5 (Herbicidal ratio of 90% or more (almost completely withered)),5 (Herbicidal ratio of 90% or more (almost completely withered)),5 (Herbicidal ratio of 90% or more (almost completely withered)),5 (Herbicidal ratio of 90% or more (almost completely withered)),5 (Herbicidal ratio of 90% or more (almost completely withered)),3 (Herbicidal ratio of 40% or higher and lower than 70%),3 (Herbicidal ratio of 40% or higher and lower than 70%),3 (Herbicidal ratio of 40% or higher and lower than 70%),0 (Herbicidal ratio of 5% or lower (almost no effect)),4 (Herbicidal ratio of 70% or higher and lower than 90%),5 (Herbicidal ratio of 90% or more (almost completely withered))
CON=C(C)CC1CC(OCC#C[Si](C)(C)C)=C(c2c(C)cc(C)cc2C)C1=O (stereo not drawn) [1-031],0 (Herbicidal ratio of 5% or lower (almost no effect)),3 (Herbicidal ratio of 40% or higher and lower than 70%),3 (Herbicidal ratio of 40% or higher and lower than 70%),0 (Herbicidal ratio of 5% or lower (almost no effect)),0 (Herbicidal ratio of 5% or lower (almost no effect)),1 (Herbicidal ratio of 5% or higher and lower than 20%),0 (Herbicidal ratio of 5% or lower (almost no effect)),5 (Herbicidal ratio of 90% or more (almost completely withered)),4 (Herbicidal ratio of 70% or higher and lower than 90%),0 (Herbicidal ratio of 5% or lower (almost no effect)),0 (Herbicidal ratio of 5% or lower (almost no effect)),0 (Herbicidal ratio of 5% or lower (almost no effect)),0 (Herbicidal ratio of 5% or lower (almost no effect)),0 (Herbicidal ratio of 5% or lower (almost no effect)),5 (Herbicidal ratio of 90% or more (almost completely withered))
CON=C(C)C(C)C1CC(O)=C(c2c(C)cc(C)cc2C)C1=O (stereo not drawn) [1-032],4 (Herbicidal ratio of 70% or higher and lower than 90%),5 (Herbicidal ratio of 90% or more (almost completely withered)),5 (Herbicidal ratio of 90% or more (almost completely withered)),5 (Herbicidal ratio of 90% or more (almost completely withered)),5 (Herbicidal ratio of 90% or more (almost completely withered)),5 (Herbicidal ratio of 90% or more (almost completely withered)),5 (Herbicidal ratio of 90% or more (almost completely withered)),5 (Herbicidal ratio of 90% or more (almost completely withered)),5 (Herbicidal ratio of 90% or more (almost completely withered)),4 (Herbicidal ratio of 70% or higher and lower than 90%),4 (Herbicidal ratio of 70% or higher and lower than 90%),4 (Herbicidal ratio of 70% or higher and lower than 90%),3 (Herbicidal ratio of 40% or higher and lower than 70%),5 (Herbicidal ratio of 90% or more (almost completely withered)),5 (Herbicidal ratio of 90% or more (almost completely withered))
